# Source: patent US20150133341A1, “Intra-Operative Cancer Diagnosis Based on a Hyperpolarized Marker” (ALBEDA INNOVATIONS APS, priority 2012, published 2015)
# Where a name gives a salt, the structure may show the parent alone. Read-outs that look alike come from different tables or passages of the source. Marks after values point to notes of the source that are not given here.
# Legend:
# [1] = system: isolated CE-1 enzyme from porcine liver; assay: CE-1 activity on short chain esters, 1H NMR; assay type: biochemical; conditions: for k: 26 μmol substrate, conversion over 60 min; for faster converted than ethyl acetate: vs ethyl acetate
# Source text: To measure almost exclusively the contribution of carboxyl esterase activity from the CE-2 isoform, human breast cancer cells (MCF-7) were employed. These cells are known from literature to express CE-2 but not to express CE-1 (Byun et al, 2008, Cancer letters 266:238-48). A group of esters was investigated as substrates for CE-1, which contained different structural features. These consisted of esters of un-substituted acids (examples are ethyl acetate, ethyl butyrate, methyl butyrate), esters of acids substituted on C2 (examples are ethyl lactate and ethyl 2-acetoxy propanoate), esters of acids substituted on C3 (examples are ethyl 3-hydroxy butyrate and ethyl 3-acetoxy butanoate), esters of ring closed acids (example ethyl pyroglutamate), esters of di-acids (examples are diethyl succinate and dimethyl succinate), esters of tri-acids (example triethyl citrate), ethyl esters of beta-keto acids (example ethyl acetoacetate). Also esters with large alcohol groups and small acid groups were investigated. In this group, the acid part of the molecule was always acetate and different structural properties of the alcohol were investigated. These consisted of esters of un-substituted alcohols (examples ethyl acetate and butyl acetate), esters of branched chain alcohols (examples t-butyl acetate, ethyl 3-acetoxy butanoate and 2-acetoxy propionate), esters of aromatic alcohols (example benzyl acetate), esters of diols (example ethyleneglycol diacetate), esters of triols (example triacetin). […] Similarly, a group of esters which contained different structural features was investigated as substrates for CE-2. CE-2 substrates are described in the literature to consist of a small acid group and a larger alcohol group. All included esters were acetate esters (i.e. esters of acetic acid) in the interest of keeping the acid moiety the smallest possible. The acetate esters measured for CE-2 activity were therefore the same as those measured in the second group of possible substrates for CE-1.
# The CE-1 experiments were performed with commercially available CE-1 from porcine liver. Individual samples of the substrates were all prepared the following way: 26 μmol was weighted in an eppendorf tube. 550 μl deuterated phosphate buffer (200 mM, pH 7.5) was added and the substrate was brought into solution by whirl mixing. The solution was transferred to a 5 mm NMR tube and inserted in the spectrometer at 37° C. A reference experiment was acquired on the substrate solution without enzyme after which 10 μl of an esterase stock solution (37 U/ml in deuterated phosphate buffer) was added in the top of the tube. The sample was mixed and returned to the spectrometer. A series of thermal 1D ^1H NMR experiments were recorded every 5 min for 60 min. The data were analysed with MNOVA software and measured as percentage conversion of substrate calculated to account for the amount of substrate converted over 60 min. The numbers are given in μmol/min.
# [2] = system: carboxyl esterase in lysed breast cancer cells (MCF-7); assay: Carboxyl esterase activity in cell extract, 1H NMR; assay type: biochemical, human; conditions: for Metabolic conversion, Breast cancer cells MCF-7: 5 million lysed cells, 37° C.
# Method: (§1) The hydrolysis of the substrates was investigated in cell extracts. To test substrates without isotope labelling for carboxyl esterase activity in a cellular background, a ^1H NMR assay was applied. Human breast cancer cells (MCF-7) and human prostate cancer cells (PC-3) were grown in RPMI medium with 10% FBS and antibiotics. They were at confluence harvested by trypsination and washed once with 5 ml PBS. They were spun down and resuspended in PBS to a concentration of 20 mill. cells/ml. The cells were hereafter sonicated on ice (50% amplitude, 1 min, 3 sec pulse). Human lymphocytes were purified from whole blood. Whole blood samples were drawn from healthy volunteer into heparinised venous blood collection tubes (Venosafe vacumtubes from Terumo). For each experiment, the blood was purified freshly: Three and a half 10 mL tubes of blood were pooled in each of four 50 mL Leucosep (Greiner) tubes prepared with 15 mL Histopaque 1077 (Sigma). The Leucosep tubes were spun for 15 min at 800× g at 24 C. The plasma was removed and the white blood cells were transferred to a 50 mL falcon tube by decanting and diluted 1:2 in PBS-Mg—Ca for a total volume of 50 mL. The cells were sedimented by centrifugation at 250×g for 60 min. Diluting with trypan blue and counting in hemocytometer determined the total number of lymphocytes before sedimentation. All cells were viable and the total number of cells in each cell batch was approx. 60 million. The lymphocytes were redissolved to a concentration of 20 million cells/ml. The cells were hereafter sonicated on ice (50% amplitude, 1 min, 3 sec pulse).
# (§2) 250 μl sonicated cell suspension was mixed with 250 μl 400 mM phosphate buffer pH 7.3. This solution was transferred to a 5 mm NMR tube and warmed on a water bath to 37° C. The substrate was added (50 μl, 60 mM) and the tube turned for mixing before it was inserted into the spectrometer. The data was analyzed with MNOVA software and measured as percentage conversion of substrate calculated to account for the amount of substrate converted over 60 min; numbers are given in μmol/hour.
# [3] = system: carboxyl esterase in lysed lymphocytes (B + T cells); assay: Carboxyl esterase activity in cell extract, 1H NMR; assay type: biochemical, human; conditions: 5 million lysed cells, 37° C.
# Method: as §1, §2
# [4] = system: carboxyl esterase in lysed prostate cancer cells (PC-3); assay: Carboxyl esterase activity in cell extract, 1H NMR; assay type: biochemical, human; conditions: for Metabolic conversion, Prostate cancer cells PC-3: 5 million lysed cells, 37° C.
# Method: as §1, §2
# [5] = target: T1, CE-2 in lysed human breast cancer cells (MCF-7) (Homo sapiens, UniProt O00748); assay: CE-2 activity on acetate esters in lysed MCF-7 cells, 1H NMR; assay type: biochemical; conditions: for k: 5 million lysed MCF-7 cells, 37° C., 1 hour; for hydrolysis by CE-2, in words: lysed MCF-7 cells
# T1 construct: endogenous in cells; host or cells: MCF-7 (sonicated lysate)
# T1 sequence (O00748 27-559): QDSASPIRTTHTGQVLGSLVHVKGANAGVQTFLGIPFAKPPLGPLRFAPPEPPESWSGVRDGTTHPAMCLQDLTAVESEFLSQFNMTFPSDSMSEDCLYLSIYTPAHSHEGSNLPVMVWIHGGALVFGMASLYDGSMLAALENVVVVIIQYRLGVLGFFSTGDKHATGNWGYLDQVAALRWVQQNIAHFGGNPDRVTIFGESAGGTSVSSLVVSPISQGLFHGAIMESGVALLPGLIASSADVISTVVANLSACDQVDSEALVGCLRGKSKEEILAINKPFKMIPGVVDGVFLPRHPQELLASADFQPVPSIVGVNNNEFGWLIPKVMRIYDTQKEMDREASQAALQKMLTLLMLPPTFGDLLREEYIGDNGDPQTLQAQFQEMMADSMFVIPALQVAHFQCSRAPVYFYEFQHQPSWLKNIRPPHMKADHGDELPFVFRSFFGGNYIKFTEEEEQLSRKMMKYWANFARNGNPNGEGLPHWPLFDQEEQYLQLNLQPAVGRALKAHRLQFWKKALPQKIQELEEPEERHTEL
# Method: Different classes of short chain esters, fulfilling the requirements for the hyperpolarization technique (stable, soluble, low molecular weight compounds (<400 Da), were evaluated as substrates for carboxyl esterases with the aim to identify esters as similar or better substrates for carboxyl esterases than 1,3-^13C2 ethyl acetoacetate. In most human cell types, including a wide range of cancer cells and lymphocytes, the activity of carboxyl esterase is dominated by the activities of isoforms 1 and 2 (CE-1 and CE-2). To measure exclusively the hydrolysis of carboxyl esterase from the CE-1 isoform, an isolated enzyme from porcine liver was applied. To measure almost exclusively the contribution of carboxyl esterase activity from the CE-2 isoform, human breast cancer cells (MCF-7) were employed. These cells are known from literature to express CE-2 but not to express CE-1 (Byun et al, 2008, Cancer letters 266:238-48). A group of esters was investigated as substrates for CE-1, which contained different structural features. […] Also esters with large alcohol groups and small acid groups were investigated. In this group, the acid part of the molecule was always acetate and different structural properties of the alcohol were investigated. These consisted of esters of un-substituted alcohols (examples ethyl acetate and butyl acetate), esters of branched chain alcohols (examples t-butyl acetate, ethyl 3-acetoxy butanoate and 2-acetoxy propionate), esters of aromatic alcohols (example benzyl acetate), esters of diols (example ethyleneglycol diacetate), esters of triols (example triacetin). Esters of alpha-keto acids were too unstable to be investigated in this assay. Esters of larger alcohols are not water soluble and therefore not relevant substrates for the purpose of the invention. Similarly, a group of esters which contained different structural features was investigated as substrates for CE-2. CE-2 substrates are described in the literature to consist of a small acid group and a larger alcohol group. All included esters were acetate esters (i.e. esters of acetic acid) in the interest of keeping the acid moiety the smallest possible. The acetate esters measured for CE-2 activity were therefore the same as those measured in the second group of possible substrates for CE-1. The CE-2 experiments were performed with lysed breast cancer cells (MCF-7). MCF-7 cells were grown in RPMI medium with 10% FBS and antibiotics. They were at confluence harvested by trypsination and washed once with 5 ml PBS. They were spun down and resuspended in PBS to a concentration of 20 mill. cells/ml. The cells were hereafter sonicated on ice (50% amplitude, 1 min, 3 sec pulse). 250 μl sonicated cell suspension was mixed with 250 μl 400 mM phosphate buffer pH 7.3. […] The substrate was added (50 μl, 60 mM) and the tube turned for mixing before it was inserted into the spectrometer. An initial spectrum was acquired and the sample was hereafter placed at 37° C. for 1 hour in a water bath. The sample was again inserted into the magnet and a second spectrum was recorded. The data was analysed with MNOVA software and measured as percentage conversion of substrate calculated to account for the amount of substrate converted over 60 min. The numbers are given in μmol/hour.
compound,measurement,setting,value
CCOC(=O)CC(C)O (stereo not shown) [Ethyl 3-Hydroxybutyrate],k,[1]; 37° C.,0.08 µmol/min
CCOC(=O)CCC(=O)OCC [Diethyl succinate],"Metabolic conversion, Breast cancer cells MCF-7",[2],0.12 µmol/h
same,"negative contrast, lower than that of EAA","[2]; breast cancer cells relative to lymphocytes, cell number basis",approx. 3 times
same,"Metabolic conversion, Lymphocytes (B + T cells)",[3],0.60 µmol/h
same,"Metabolic conversion, Prostate cancer cells PC-3",[4],0.48 µmol/h
same,k,[1]; 37° C.,0.48 µmol/min
same,faster converted than ethyl acetate,[1],more than ten times faster converted
CCCC(=O)OCC [Ethylbutyrate],k,[1]; 37° C.,0.12 µmol/min
CCCC(=O)OC [Methylbutyrate],"Metabolic conversion, Breast cancer cells MCF-7",[2],0.42 µmol/h
same,"Metabolic conversion, Lymphocytes (B + T cells)",[3],0.90 µmol/h
same,"Metabolic conversion, Prostate cancer cells PC-3",[4],0.51 µmol/h
same,k,[1]; 37° C.,0.22 µmol/min
CC(=O)OCCOC(C)=O [Ethyleneglycol diacetate],k,[1]; 37° C.,0.07 µmol/min
same,k,[5],0.18 µmol/min
CCOC(=O)C(C)O (stereo not shown) [Ethyl lactate],k,[1]; 37° C.,0.11 µmol/min
CCOC(=O)C(C)OC(C)=O (stereo not shown) [ethyl 2-acetoxy propanoate],"k (μmol/min), acetate ester","[1]; hydrolysis of the acetate ester function, 37° C., 60 min",0 µmol/min
same,"k (μmol/min), ethyl ester","[1]; hydrolysis of the ethyl ester function, 37° C., 60 min",0.16 µmol/min
same,"hydrolysis by CE-2, in words",[5],hydrolysed to a similar extent
CCOC(=O)[C@@H]1CCC(=O)N1 [Ethyl pyroglutamate],"conversion by CE-1, in words",[1],only hydrolyzed to a very low extent
same,k,[1]; 37° C.,0.02 µmol/min
same,"conversion by CE-1, in words",[1]; listed as ethyl ester of pyroglutamate,barely detectable
CCCCOC(C)=O [Butyl acetate],k,[1]; 37° C.,0.04 µmol/min
same,k,[5],0.24 µmol/min
same,"hydrolysis by CE-2, in words",[5],hydrolysed to a similar extent
CC(=O)OC(C)(C)C [Tert-butyl acetate],k,[1]; 37° C.,0 µmol/min
CCOC(=O)CC(O)(CC(=O)OCC)C(=O)OCC [Triethyl citrate],"conversion by CE-1, in words",[1],only hydrolyzed to a very low extent
same,k,[1]; 37° C.,0 µmol/min
same,"conversion by CE-1, in words",[1]; listed as triethyl citrate,no hydrolysis could be detected
CCOC(=O)CC(C)=O [Ethyl acetoacetate],"Metabolic conversion, Breast cancer cells MCF-7",[2],0* umol/hour
same,"contrast in breast cancer cells relative to lymphocytes, in words","[2]; cell number basis, FIG. 9A",highest contrast
same,"Metabolic conversion, Lymphocytes (B + T cells)",[3],0.15 µmol/h
same,"Metabolic conversion, Prostate cancer cells PC-3",[4],0* umol/hour
same,"contrast in prostate cancer cells relative to lymphocytes, in words","[4]; cell number basis, FIG. 9B",highest negative contrast
same,k,[1]; 37° C.,0.12 µmol/min
COC(=O)CCC(=O)OC [Dimethyl succinate],k,[1]; 37° C.,0.41 µmol/min
same,faster converted than ethyl acetate,[1],more than ten times faster converted
CCOC(C)=O [Ethylacetate],"conversion by CE-1, in words",[1],not a good substrate
same,k,[1]; 37° C.,0.03 µmol/min
same,k,[5],0 µmol/min
same,"hydrolysis by CE-2, in words",[5],not hydrolysed
